In PubChem BioAssay AID588822 (The Scripps Research Institute Molecular Screening Center, 2011):
Active and inactive are the calls of the source.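 How the source made its calls: active means half-maximal inhibitory concentration of 10 µM or lower; inactive means the rest.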

Target: Nuclear receptor subfamily 0 group B member 1 (Homo sapiens) (UniProt P51843)
Experiment: DAX1 (NR0B1) repression inhibitors, late-stage follow-up, cell-based, luminescence, HEK293, Gal4-DAX1 reporter, dose response (AID 588822)
Settings: HEK293 Gal4-DAX1 luciferase reporter

Nuclear receptor subfamily 0 group B member 1 (Homo sapiens), sequence (P51843 207-470 limits assumed): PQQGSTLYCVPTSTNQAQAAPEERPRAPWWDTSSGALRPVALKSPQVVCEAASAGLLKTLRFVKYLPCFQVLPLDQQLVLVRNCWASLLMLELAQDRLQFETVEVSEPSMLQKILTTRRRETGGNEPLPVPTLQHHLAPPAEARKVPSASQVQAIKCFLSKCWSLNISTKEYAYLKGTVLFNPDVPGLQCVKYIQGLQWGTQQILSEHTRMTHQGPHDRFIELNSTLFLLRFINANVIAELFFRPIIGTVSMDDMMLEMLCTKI

| SMILES | IC50 |
| --- | --- |
| COc1ccc(OC)c(C(C)NC(=O)c2cccc(C)c2)c1 (centres undefined) | > 69.5 µM (inactive) |
| Cc1occc1C(=O)Nc1ccc2c(c1)OCO2 | > 69.5 µM (inactive) |
| COc1ccc(OC)c(C(C)NC(=O)c2ccc(C)cc2)c1 (centres undefined) | > 69.5 µM (inactive) |
| O=C(Nc1ccc2c(c1)OCCO2)c1ccc2ccccc2c1 | > 69.5 µM (inactive) |
| O=C(Nc1ccc2c(c1)OCO2)c1ccc2ccccc2c1 | > 69.5 µM (inactive) |
| Cc1cc(C(=O)Nc2ccc3c(c2)OCO3)cs1 | > 69.5 µM (inactive) |
| CSc1ccccc1C(=O)Nc1ccc2c(c1)OCO2 | > 69.5 µM (inactive) |
| COc1cccc(C(=O)Nc2ccc3c(c2)OCO3)c1 | > 69.5 µM (inactive) |
| COc1ccc(OC)c(C(C)NC(=O)c2ccccc2Cl)c1 (centres undefined) | > 69.5 µM (inactive) |
| COc1ccc(OC)c(C(C)NC(=O)c2cccc(F)c2)c1 (centres undefined) | > 69.5 µM (inactive) |
| COc1cccc(C(=O)NC(C)c2cc(OC)ccc2OC)c1 (centres undefined) | > 69.5 µM (inactive) |
| COc1ccc(OC)c(C(C)NC(=O)c2c(F)cccc2Cl)c1 (centres undefined) | > 69.5 µM (inactive) |
| COc1ccc(OC)c(C(C)NC(=O)c2ccc(Cl)cc2)c1 (centres undefined) | > 69.5 µM (inactive) |
| COc1cccc(C(=O)Nc2ccc3c(c2)OCCO3)c1 | > 69.5 µM (inactive) |
| O=C(Cc1cccs1)Nc1ccc2c(c1)OCO2 | > 69.5 µM (inactive) |
| CN(C)c1cccc(C(=O)Nc2ccc3c(c2)OCCO3)c1 | > 69.5 µM (inactive) |
| COc1ccc(OC)c(C(C)NC(=O)c2ccc3c(c2)OCCO3)c1 (centres undefined) | > 69.5 µM (inactive) |
| COc1ccc(OC)c(C(C)NC(=O)c2ccccc2)c1 (centres undefined) | > 69.5 µM (inactive) |
| Cn1c(=O)n(C)c2cc(C(=O)Nc3ccc4c(c3)OCCO4)ccc21 | > 69.5 µM (inactive) |
| CSc1ccccc1C(=O)Nc1ccc2c(c1)OCCO2 | > 69.5 µM (inactive) |
| O=C(Nc1ccc2c(c1)OCO2)c1cccs1 | > 69.5 µM (inactive) |
| Cn1c(=O)n(C)c2cc(C(=O)Nc3ccc4c(c3)OCO4)ccc21 | > 69.5 µM (inactive) |
| O=C(Nc1ccc2c(c1)OCO2)c1ccc(C2SCC(=O)N2Cc2ccco2)cc1 (centres undefined) | > 69.5 µM (inactive) |
| COc1ccc(OC)c(C(C)NC(=O)c2ccc(C(C)(C)C)cc2)c1 (centres undefined) | > 69.5 µM (inactive) |
| O=C(Nc1ccc2c(c1)OCO2)c1ccc(C2SCC(=O)N2Cc2ccccc2)cc1 (centres undefined) | > 69.5 µM (inactive) |
| COc1ccc(OC)c(C(C)NC(=O)c2ccccc2F)c1 (centres undefined) | > 69.5 µM (inactive) |
| COc1ccc(OC)c(C(C)NC(=O)c2cccc3ccccc23)c1 (centres undefined) | > 69.5 µM (inactive) |
| COc1ccc(OC)c(C(C)NC(=O)c2ccccc2C)c1 (centres undefined) | > 69.5 µM (inactive) |
| COc1ccc(OC)c(C(C)NC(=O)c2ccc(F)cc2)c1 (centres undefined) | > 69.5 µM (inactive) |
